Measured values published in US6942979B1, “Method for screening substances capable of modulating the activity of a TRAAK potassium channel” (Centre National de la Recherche Scientifique-CNRS, priority 1998, dated 2005).

Key:
Format in all cases: cell-based
[1] = molecular target: T1, TRAAK channel (Mus musculus, UniProt O88454); assay: TRAAK currents in transfected COS cells, imposed voltage technique; conditions: concentration of 10 μM
T1 construct: an open reading phase of 1197 nucleotides coding for a polypeptide of 398 residues; expressed in transfected cells; host or cells: COS cells (transient)
T1 sequence (O88454 1-398): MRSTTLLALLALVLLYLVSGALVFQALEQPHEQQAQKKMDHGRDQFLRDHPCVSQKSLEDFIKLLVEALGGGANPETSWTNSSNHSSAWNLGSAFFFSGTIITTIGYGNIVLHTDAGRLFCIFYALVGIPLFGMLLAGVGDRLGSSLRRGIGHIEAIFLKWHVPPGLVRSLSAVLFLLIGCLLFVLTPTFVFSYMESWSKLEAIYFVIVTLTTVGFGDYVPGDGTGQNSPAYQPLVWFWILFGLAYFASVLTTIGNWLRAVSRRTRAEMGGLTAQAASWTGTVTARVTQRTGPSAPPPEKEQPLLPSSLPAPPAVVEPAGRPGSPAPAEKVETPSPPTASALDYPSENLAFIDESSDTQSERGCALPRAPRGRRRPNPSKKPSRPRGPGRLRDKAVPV

[2] = test system: control cells (CD8); assay: Application of AA on control cells (CD8)
[3] = molecular target: T2, TREK-1 channel (Mus musculus, UniProt P97438, R381M/T78A); assay: TREK-1 currents in transfected COS cells, patch recording
T2 construct: expressed in transfected cells; host or cells: COS cells
T2 sequence (P97438 with tags, fused parts or gaps isoform P97438-2 T63A/R366M): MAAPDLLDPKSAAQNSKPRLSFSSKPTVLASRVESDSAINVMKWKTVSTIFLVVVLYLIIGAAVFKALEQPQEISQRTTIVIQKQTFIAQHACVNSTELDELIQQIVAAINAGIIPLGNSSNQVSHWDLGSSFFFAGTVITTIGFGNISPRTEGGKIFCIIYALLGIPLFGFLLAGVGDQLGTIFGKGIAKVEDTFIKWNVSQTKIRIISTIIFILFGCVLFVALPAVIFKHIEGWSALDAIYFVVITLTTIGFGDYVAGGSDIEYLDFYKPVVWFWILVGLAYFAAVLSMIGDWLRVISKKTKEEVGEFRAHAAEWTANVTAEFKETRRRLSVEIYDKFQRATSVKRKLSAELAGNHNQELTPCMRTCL
Method: (§1) In FIG. 8a: the activity of TREK-1 was recorded in the attached cell configuration. The patch was stimulated by a potential ramp lasting 800 msec every 5 seconds. The currents were measured at 80 mV. The applications of arachidonic acid (AA, 10 μM) are indicated by the horizontal bars. During the experiment, the patch was stimulated by tensions of 50 mmHg (indicated by the arrows). At 9 minutes, the patch was excised in the inside-out configuration. In FIG. 8b: current-potential relations corresponding to the experiment illustrated in FIG. 8a is shown. In FIG. 8c: activity of TREK-1 in the attached cell configuration with 10 μM AA in the pipette can be seen. The potential ramp lasted 800 msec and the currents were measured at 80 mV. In FIG. 8d: single-channel current-potential relations at the moment at which the pipette was placed on the membrane or after 20 minutes and 1 minute after the patch was excised in the inside-out configuration. […] The current was measured at 80 mV. In FIG. 8f: AA had no effect on the TREK-1 current measured in the intact cell when it was in the pipette. The current was measured 30 minutes after the patch was broken (control tracing) by a potential ramp of 800 msec. The current was then measured after an application of AA of 1 minute in the external medium (AA tracing).
(§2) FIGS. 10a and b are graphs showing the effect of riluzole on the TREK-1 and TRAAK […] currents. The current-potential relations were obtained as in FIG. 9a above and after application ofriluzole (100 μM) on the transfected COS cells.

[4] = molecular target: T3, TREK-1 channel (Mus musculus, UniProt P97438); assay: as above; conditions: AA 10 μM applied in the external medium, transfected COS cells
T3 construct: expressed in transfected cells; host or cells: COS cells
T3 sequence (P97438 with tags, fused parts or gaps isoform P97438-2 T63A/R366M): T2 sequence (P97438 with tags, fused parts or gaps isoform P97438-2 T63A/R366M)
Method: as §1, §2

[5] = molecular target: T4, TWIK-1 channel (Homo sapiens, UniProt O00180); assay: TWIK-1 currents in transfected COS cells before and after AA; conditions: intact cell configuration
T4 construct: expressed in transfected cells; host or cells: COS cells (transient)
T4 sequence (O00180 1-336): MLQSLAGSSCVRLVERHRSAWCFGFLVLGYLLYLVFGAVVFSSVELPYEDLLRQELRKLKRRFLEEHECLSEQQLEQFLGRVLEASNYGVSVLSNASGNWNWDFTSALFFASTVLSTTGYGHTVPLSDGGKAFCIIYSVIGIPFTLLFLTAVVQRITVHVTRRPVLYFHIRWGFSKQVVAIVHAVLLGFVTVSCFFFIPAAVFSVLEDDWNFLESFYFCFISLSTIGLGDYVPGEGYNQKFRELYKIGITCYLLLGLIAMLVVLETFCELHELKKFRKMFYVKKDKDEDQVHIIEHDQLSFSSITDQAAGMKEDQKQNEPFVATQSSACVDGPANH

[6] = molecular target: T1, TRAAK channel; assay: TRAAK currents in transfected COS cells, imposed voltage technique; parameters: increase in the current induced by AA: dose or concentration left out as unconfirmed
Method: The maintenance potential was -80 mV. In FIG. 9b: dose-effect relation ofthe activation of TRAAK by AA is shown. In FIG. 9c: current-potential relations obtained as in FIG. 9a in the outside-out configuration are shown. […] In FIG. 9d: a histogram represents the coefficient of augmentation of the currents obtained after application of various fatty acids (10 μM). […] The coefficient of augmentation is indicated in each case. […] The current-potential relations were obtained as in FIG. 9a above and after application ofriluzole (100 μM) on the transfected COS cells. […] For expression in the COS cells, the TRAAK sequence was subcloned in an expression vector under the control of a eukaryote promoter and transfected into the cells. An absent non-inactivating current from the oocytes and the control cells was measured by the imposed voltage technique as represented in FIG. 4. The activation was instantaneous and could not be resolved because it was masked by the capacitive discharge of the current recorded at the beginning of the potential jump. The current-potential relation rectified in the outgoing direction when the external K^+ concentration was equal to 2 mM. Incoming currents were observed when the external K^+ concentration was increased. At all concentrations, the current-potential curves followed the Goldman-Hodgkin-Katz relation. […] The TRAAK channel is selective for potassium. Reversal of the current potential follows the equilibrium potential of K^+ and changing the concentration of K^+ by 10 leads to a change in the potential inversion value conforming to the value predicted by Nernst's equation (48.7±0.7 mV times 10, n=4).

[7] = molecular target: T5, TASK channel (Homo sapiens, UniProt O14649); assay: TASK currents in transfected COS cells before and after AA; conditions: intact cell configuration
T5 construct: expressed in transfected cells; host or cells: COS cells (transient)

[8] = molecular target: T1, TRAAK channel; assay: TRAAK currents in Xenopus oocytes injected with TRAAK cRNA, imposed voltage technique
Method: In (a): the oocytes were maintained at a potential of −80 mV then the currents were recorded following potential jumps from −150 to +50 mV by increments of 20 mV. The recordings were performed in an external medium containing a K^+ concentration of 2 mM or 74 mM. In (b): current-potential relation was according to the same experimental set-up as in (a). In (c): potential reversal (Erev) of the TRAAK currents were a function of the external K^+ concentration. In (d): currents recorded on COS cells transfected by TRAAK according to the same protocol as in (a). In (e): current-potential relation was according to the same experimental set-up as in (d).
For the functional study, the coding sequence of TRAAK was inserted in the vector pEXO and a complementary RNA (cRNA) was synthesized from this construction and injected in Xenopus oocytes. For expression in the COS cells, the TRAAK sequence was subcloned in an expression vector under the control of a eukaryote promoter and transfected into the cells. An absent non-inactivating current from the oocytes and the control cells was measured by the imposed voltage technique as represented in FIG. 4. The activation was instantaneous and could not be resolved because it was masked by the capacitive discharge of the current recorded at the beginning of the potential jump. The current-potential relation rectified in the outgoing direction when the external K^+ concentration was equal to 2 mM. Incoming currents were observed when the external K^+ concentration was increased. At all concentrations, the current-potential curves followed the Goldman-Hodgkin-Katz relation. […] The TRAAK channel is selective for potassium. Reversal of the current potential follows the equilibrium potential of K^+ and changing the concentration of K^+ by 10 leads to a change in the potential inversion value conforming to the value predicted by Nernst's equation (48.7±0.7 mV times 10, n=4).

[9] = riluzole 100 μM, transfected COS cells

T5 sequence (O14649 whole entry): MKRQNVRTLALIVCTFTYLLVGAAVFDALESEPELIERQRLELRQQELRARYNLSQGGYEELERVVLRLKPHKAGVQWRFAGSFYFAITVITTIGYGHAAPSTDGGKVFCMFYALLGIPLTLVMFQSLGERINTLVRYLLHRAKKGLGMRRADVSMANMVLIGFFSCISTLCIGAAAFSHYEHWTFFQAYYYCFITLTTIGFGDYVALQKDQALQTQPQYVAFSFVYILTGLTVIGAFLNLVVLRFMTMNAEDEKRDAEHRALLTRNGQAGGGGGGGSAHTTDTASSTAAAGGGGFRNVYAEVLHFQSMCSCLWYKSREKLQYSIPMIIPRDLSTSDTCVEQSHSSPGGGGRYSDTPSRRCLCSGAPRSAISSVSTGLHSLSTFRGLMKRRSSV

CCCCCCCCCCCCCCCCCCCC(=O)O [arachidic, arachidic acid]
activation of the TRAAK channel by fatty acids and derivatives [1]: no effect

CCCCC/C=C\C/C=C\CCCCCCCC(=O)O [linoleic, linoleic acid]
activation of the TRAAK channel by fatty acids and derivatives [1]: activation

CCCCCCCCCCCCCCCC(=O)O [palmitic, palmitic acid]
activation of the TRAAK channel by fatty acids and derivatives [1]: no effect

CCC=CCC=CCC=CCC=CCC=CCC=CCCC(=O)OC [DOHA-ME]
activation of the TRAAK channel by fatty acids and derivatives [1]: inactive

CCCCC/C=C\C/C=C\C/C=C\C/C=C\CCCC(=O)O [AA, arachidonic acid]
effect of AA on control cells [2]: no effect | activation of TREK-1 by internal AA ([3]; AA in the pipette, intact cell, dialyzed up to 30 minutes): did not activate | activation of TREK-1 by AA [4]: activated | effect of activation by AA on TWIK-1 [5]: No effects of the same type | activation of the TRAAK channel by AA ([6]; AA 10 μM (FIG. 9a), transfected COS cells, reversible, concentration dependent): activated | increase in the current induced by AA ([6]; AA perfusion with mixture of inhibitors of AA metabolism, at +50 mV, n=3): 6.6±0.5 times | effect of activation by AA on TASK [7]: No effects of the same type

CCCCCCCC/C=C\CCCCCCCC(=O)O [oleic, oleic acid]
activation of the TRAAK channel by fatty acids and derivatives [1]: activation

CC/C=C\C/C=C\C/C=C\C/C=C\C/C=C\C/C=C\CCC(=O)O [docosohexaenoic, docosohexaenoic acid]
activation of the TRAAK channel by fatty acids and derivatives [1]: activation

CC[N+](CC)(CC)CC [tetraethylammonium]
sensitivity of TRAAK to potassium channel blocking agents ([8]; 1 mM): insensitive

CCCCC/C=C\C/C=C\C/C=C\C/C=C\CCCC(=O)OC [AA-ME]
activation of the TRAAK channel by fatty acids and derivatives [1]: inactive

CCCCC/C=C\C/C=C\C/C=C\C/C=C\CCCCO [AA-OH]
activation of the TRAAK channel by fatty acids and derivatives [1]: inactive

Nc1ccncc1 [4-aminopyridine]
sensitivity of TRAAK to potassium channel blocking agents ([8]; 1 mM): insensitive

C=C[C@H]1C[N@@]2CC[C@H]1C[C@H]2[C@H](O)c1ccnc2ccc(OC)cc12 [quinine]
sensitivity of TRAAK to potassium channel blocking agents ([8]; 100 mM): insensitive

CCCCCCCCCCCCCCCCCC(=O)O [stearic, stearic acid]
activation of the TRAAK channel by fatty acids and derivatives [1]: no effect

Nc1nc2ccc(OC(F)(F)F)cc2s1 [Riluzole, riluzole]
effect of riluzole on the TREK-1 channel [3, 9]: opener | effect of riluzole on the TRAAK channel [6, 9]: opener
